In general, solubility refers to the concentration that dissolves in the medium under given conditions. Lower therefore signals a poorly soluble substance.

The source of these data is patent publication US12472201B2, “Complexing agent salt formulations of pharmaceutical compounds” (Bexson Biomedical, Inc., priority 2020, dated 2025).

Series [1] can be described thus: Forced precipitation of racemic ketamine with 2M NaOH. Format: physicochemical. To be noted: 70 mg/mL ketamine FB equiv., 2 mL volume, 2M NaOH after pH 5.5 in 1-2 μL volumes. Here is the method: The tests were conducted on a 2 mL volume. Base was added in 1-2 μL volumes.
A short description of series [2]: Osmolality of ketamine HCl and ketamine-Captisol complexes. It is filed as physicochemical. The conditions noted are these: for Mean Osmolality: each sample run in triplicate. How it is done: Osmolality. Osmolality readings were obtained on an Advanced Instruments Advanced™ Micro Osmometer Model 3300 (Advanced Instruments, Inc. Norwood, MA, USA). Saline solutions (0.9% and 3%) were freshly prepared with sodium chloride (Fisher Scientific, Fair Lawn, NJ) and run as positive controls. Each sample was calculated as the mean from back-to-back triplicate measurements.

The nature of series [3]: Forced precipitation of API HCl salt and API FB-CapAcid formulation with 2M NaOH. The conditions noted are these: 70 mg/mL API in FB equivalents, 1 mL scale, 1 μL increments of 2M NaOH, starting pH 7.0±0.1. Format: physicochemical.
Series [4] is described as follows: Final pH and average osmolality of API Captisol formulations and API salt solutions.
Series [5] is described as follows: Theoretical vs measured osmolarities of API-Cap formulations. Format: physicochemical. The conditions noted are these: API-Cap Formulations at 70 mg/mL freebase equivalents; for Percentage of Theoretical: measured osmolality vs calculated osmolarity.
Series [6] in a line: Solubility of DMT, 5-MeO-DMT and Mescaline in Captisol sodium solution. The conditions noted are these: equimolar Captisol Sodium form in water; for Appearance after filtration / Osmolality / pH: agitated overnight; for Amine Conc.: total 10 g, agitated at room temperature overnight, after filtration. It is filed as physicochemical. How it is done:
An equimolar amount of Captisol Sodium form and 5 mL HPLC grade water were added to three 20 mL vials equipped with stir bars. Once a solution was formed, 638 mg of DMT, 700 mg of 5-MeO-DMT, and 700 mg of Mescaline were added to each vial. Each solution was diluted with water to a total solution weight of 10 g. The mixtures were agitated at room temperature overnight and analyzed.

A further series can be described thus: physchem. The conditions noted are these: water, thermodynamic from solid.
Where [7] appears, read: API HCl salt (70 mg/mL in FB equiv).
Where [8] appears, read: CapAcid-API Freebase Formulation (70 mg/mL API FB, 1.1 molar equiv CapAcid).
The mark [9] stands for this setting: Captisol-API HCl salt formulation (70 mg/mL API HCl salt in FB equiv, 1.1 molar equiv Captisol in CapAcid equiv).
Setting [10] is: Captisol salt formulation with DXM HBr 15 mg/mL FB equiv.
Where [11] appears, read: salt solution, DXM HBr 15 mg/mL FB equiv.
Setting [12] is: salt solution, 5-IAI HCl 35 mg/mL FB equiv.
The mark [13] stands for this setting: Captisol salt formulation with nicotine Stoichiometric Fumarate salt, 70 mg/mL FB equiv.
The mark [14] stands for this setting: salt solution, nicotine Stoichiometric Fumarate salt, 70 mg/mL FB equiv.
Setting [15] is: Captisol salt formulation with Sumatriptan stoichiometric succinate salt, 70 mg/mL FB equiv.
[16] abbreviates: salt solution, Sumatriptan stoichiometric succinate salt, 70 mg/mL FB equiv.

Several values for one entry are separate records, joined by “and”; a condition that tells them apart may be missing. Identical values can stand only once. Counter-ions that a name gives are not always drawn. Marks after values point to notes of the source that are not given here.

For the molecule `CNC1(c2ccccc2Cl)CCCCC1=O` (racemic) [Ketamine HCl], the “Mean Volume Base to precip ± SEM” value in series [1] worked out at 4 ± 0 µL. The figures for the “Mean Osmolality” value in series [2] (75 mg/mL) and in series [2] (100 mg/mL) were 533.3 mOsm and 703.0 mOsm, respectively. Besides, the “Average osmolality ± SEM” value in series [2] ([Ketamine] 70 mg/mL FB equiv., HCl) is 527 ± 2.69 mOsm/kg and 527.0 ± 2.7 mOsm/kg; in series [2] ([Ketamine] 96 mg/mL FB equiv., HCl), 704.4 ± 9.95 mOsm/kg and 704.4 ± 9.9 mOsm/kg; in series [2] ([Ketamine] 100 mg/mL FB equiv.), 736.83 ± 3.7 mOsm/kg.
For `CNC(C)Cc1cccc(F)c1.Cl` (stereo not shown) [3-FMA HCl], the “Volume of Base need for Precipitation” value in series [3] came to 37 µL.
Same read-out and setting: under `CNC(C)Cc1ccc2occc2c1.Cl` (stereo not shown) [5-MAPB HCl] stands 47* μL.
For the molecule `CNC1(c2ccccc2)CCCCC1=O` (stereo not shown) [DCK, 2-(methylamino)-2-phenylcyclohexan-1-one], in series [4] (setting [7]), the Osmolality was 601 mOsm/kg and the pH came to 4.73. Further, in series [4] (setting [8]), the Osmolality is recorded as 310 mOsm/kg and the pH was determined as 7.00. In addition, in series [4] (setting [9]), the Osmolality is on record as 1,086 mOsm/kg and the pH is 6.98. In series [5], the “Measured Osmolality” value amounted to 310 mOsmol/L and the “Percentage of Theoretical” value is reported as 77.1%.
As to `CN(C)CCc1c[nH]c2ccccc12` [DMT, N,N-Dimethyltryptamine], in series [6], the Appearance after filtration entry was “Clear/colorless”, the Osmolality is recorded as 300 mOsm/kg, the pH amounted to 11.10 and the “Amine Conc.” value was found to be 13.6 mg/mi.
On to `COc1ccc2c(c1)[C@]13CCCC[C@@H]1[C@H](C2)N(C)CC3` [DXM HBr hydrate, dextromethorphan HBr hydrate], for which the solubility at 48 h in “physchem” turned out to be 16.4 mg/mL.
For `COc1ccc2c(c1)[C@]13CCCC[C@@H]1[C@H](C2)N(C)CC3` [DXM, dextromethorphan, reference compound], the results for the Osmolality in series [4] (setting [8]), in series [4] (setting [10]) and in series [4] (setting [11]) were 113 mOsm/kg, 145* mOsm/kg and 91 mOsm/kg, respectively. Moreover, the pH in series [4] (setting [8]) came out at 6.95; in series [4] (setting [10]), 7.05; in series [4] (setting [11]) it was 5.47. Also, in series [5], the “Measured Osmolality” value is 113 mOsmol/L.
For the molecule `CNC1(c2ccccc2F)CCCCC1=O` (stereo not shown) [Example 2-F-DCK, 2-(2-fluorophenyl)-2-(methylamino)cyclohexan-1-one], the Osmolality in series [4] (setting [7]) is recorded as 560 mOsm/kg; in series [4] (setting [8]), 373 mOsm/kg; in series [4] (setting [9]), 1,046 mOsm/kg. The pH in series [4] (setting [7]) amounted to 4.27; in series [4] (setting [8]), 6.97. For the same molecule, the “Measured Osmolality” value in series [5] worked out at 373 mOsmol/L. In addition, the “Percentage of Theoretical” value in series [5] is recorded as 100.9%.
Regarding `CNC(C)Cc1cccc(F)c1` (stereo not shown) [Example 3-FMA, 1-(3-fluorophenyl)-N-methylpropan-2-amine], the Osmolality in series [4] (setting [7]) is listed as 706 mOsm/kg; in series [4] (setting [8]), 337 mOsm/kg; in series [4] (setting [9]) it was 1,388 mOsm/kg. Moreover, the pH in series [4] (setting [7]) is 5.17; in series [4] (setting [8]), 6.78; in series [4] (setting [9]) it was 7.01. Also, the “Measured Osmolality” value in series [5] came to 337 mOsmol/L.
In the case of `CNC(C)C(=O)c1cccc(C)c1` (stereo not shown) [Example 3-MMC, 2-(methylamino)-1-(m-tolyl)propan-1-one], the results for the Osmolality in series [4] (setting [7]), in series [4] (setting [8]) and in series [4] (setting [9]) were 636 mOsm/kg, 312 mOsm/kg and 1,190* mOsm/kg, respectively. Also, the pH is listed as 4.76 in series [4] (setting [7]), 6.99 in series [4] (setting [8]) and 6.98 in series [4] (setting [9]). In series [5], the “Measured Osmolality” value amounted to 312 mOsmol/L.
On to `NC1Cc2ccc(I)cc2C1` (stereo not shown) [Example 5-IAI, 5-iodo-2,3-dihydro-JH-inden-2-amine], for which the Osmolality in series [4] (setting [8]) was determined as 119 mOsm/kg; in series [4] (setting [9]), 621 mOsm/kg; in series [4] (setting [12]), 221 mOsm/kg. Also, the results for the pH in series [4] (setting [8]), in series [4] (setting [9]) and in series [4] (setting [12]) were 6.97, 6.98 and 4.62, respectively. Besides, in series [5], the “Measured Osmolality” value is 119 mOsmol/L.
In the case of `CNC(C)Cc1ccc2occc2c1` (stereo not shown) [Example 5-MAPB, 1-(benzofuran-5-yl)-N-methylpropan-2-amine], the Osmolality is 556 mOsm/kg in series [4] (setting [7]), 215 mOsm/kg in series [4] (setting [8]) and 1,004 mOsm/kg in series [4] (setting [9]). Also, the pH in series [4] (setting [7]) worked out at 3.16; in series [4] (setting [8]) it was 7.10; in series [4] (setting [9]), 7.15. In series [5], the “Measured Osmolality” value was determined as 215 mOsmol/L.
For the molecule `COc1ccc2[nH]cc(CCN(C)C)c2c1` [Example 5-MeO-DMT, 5-methoxy-N,N-dimethyltryptamine], in series [6], the Appearance after filtration entry is listed as “Clear/faint yellow”, the Osmolality turned out to be 316 mOsm/kg, the pH was determined as 11.03 and the “Amine Conc.” value stood at 14.6 mg/mi.
With `CNC1(c2ccccc2Cl)CCCCC1=O` (stereo not shown) [Ketamine], in series [5], the “Measured Osmolality” value was found to be 291 mOsmol/L and the “Percentage of Theoretical” value is on record as 84.6%.
On to `CCN(CC)CC(=O)Nc1c(C)cccc1C` [Lidocaine HCl, reference compound], for which the “Volume of Base need for Precipitation” value in series [3] stood at 5 µL.
`CCN(CC)CC(=O)Nc1c(C)cccc1C` [Lidocaine, reference compound]: the Osmolality in series [4] (setting [7]) was found to be 543 mOsm/kg; in series [4] (setting [8]), 304 mOsm/kg; in series [4] (setting [9]) it was 844 mOsm/kg. Moreover, the figures for the pH in series [4] (setting [7]), in series [4] (setting [8]) and in series [4] (setting [9]) were 4.60, 6.99 and 6.95, respectively. Also, the “Measured Osmolality” value in series [5] was determined as 304 mOsmol/L. In addition, the “Percentage of Theoretical” value in series [5] is 87.0%.
As to `Cc1cccc(C(=O)C(C)N(C)C)c1.Cl` (stereo not shown) [Me-3-MMC HCl, Me-3-MMC hydrochloride], in series [3], the “Volume of Base need for Precipitation” value is 6.5* μL.
For `Cc1cccc(C(=O)C(C)N(C)C)c1` (stereo not shown) [Me-3-MMC, 2-(dimethylamino)-1-(m-tolyl)propan-1-one], the Osmolality in series [4] (setting [7]) was 578 mOsm/kg; in series [4] (setting [8]), 321 mOsm/kg; in series [4] (setting [9]) it was 1,151 mOsm/kg. Further, the pH in series [4] (setting [7]) is 4.44; in series [4] (setting [8]) it was 6.95; in series [4] (setting [9]), 7.00. The “Measured Osmolality” value in series [5] is 321 mOsmol/L.
As for `COc1cc(CCN)cc(OC)c1OC` [Mescaline], in series [6], the Appearance after filtration entry was “Clear/light yellow”, the Osmolality stood at 570 mOsm/kg, the pH worked out at 11.69 and the “Amine Conc.” value was found to be 77.7 mg/mi.
For the molecule `CN1CC[C@]23c4c5ccc(O)c4O[C@H]2[C@@H](O)C=C[C@H]3[C@H]1C5` [Morphine, reference compound], in series [4] (setting [8]), the Osmolality is listed as 166 mOsm/kg and the pH is recorded as 6.09. Moreover, in series [5], the “Measured Osmolality” value is 166 mOsmol/L and the “Percentage of Theoretical” value is 57.9%.
In the case of `CN1CCC[C@H]1c1cccnc1` [Nicotine, S-(−)-nicotine, reference compound], the figures for the Osmolality in series [4] (setting [8]), in series [4] (setting [13]) and in series [4] (setting [14]) were 555* mOsm/kg, 2,006 mOsm/kg and 682 mOsm/kg, respectively. In addition, the pH was 7.02* in series [4] (setting [8]), 6.97 in series [4] (setting [13]) and 3.80 in series [4] (setting [14]). Also, the “Measured Osmolality” value in series [5] was 555 mOsmol/L. In addition, in series [5], the “Percentage of Theoretical” value is on record as 110.1%.
Take `CNS(=O)(=O)Cc1ccc2[nH]cc(CCN(C)C)c2c1` [Sumatriptan, 1-(3-(2-(dimethylamino)ethyl)-1H-indol-5-yl)-N-methylmethanesulfonamide, reference compound]: the figures for the Osmolality in series [4] (setting [8]), in series [4] (setting [15]) and in series [4] (setting [16]) were 109 mOsm/kg, 858 mOsm/kg and 293 mOsm/kg, respectively. Also, the pH is reported as 7.06 in series [4] (setting [8]), 6.99 in series [4] (setting [15]) and 4.57 in series [4] (setting [16]). Also, in series [5], the “Measured Osmolality” value turned out to be 109 mOsmol/L.
